Reference: patent US7041292B1, “Treating prostate cancer with anti-ErbB2 antibodies” (Genentech, Inc., priority 1999, dated 2006)
“Also recorded” adds a separate entry of the source.

B1: PEG-Fab: Fab' fragment of rhuMAb 2C4 expressed in E. coli and conjugated to 20 kD branched polyethylene glycol (conjugate, chains of the INN, looked up)
VH: EVQLVESGGGLVQPGGSLRLSCAASGFTFTDYTMDWVRQAPGKGLEWVADVNPNSGGSIYNQRFKGRFTLSVDRSKNTLYLQMNSLRAEDTAVYYCARNLGPSFYFDYWGQGTLVTVSS
VL: DIQMTQSPSSLSASVGDRVTITCKASQDVSIGVAWYQQKPGKAPKLLIYSASYRYTGVPSRFSGSGSGTDFTLTISSLQPEDFATYYCQQYYIYPYTFGQGTKVEIK
modifications: Fab' 20 kD branched PEG

How the values were obtained:
MDA-MB-175 cells = test: MDA-MB-175 cell proliferation, crystal violet, 4 days, with or without rHRGβ1; format: cell-based, human; settings: 10 μg/mL, not significantly reversed by exogenous HRG, FIG. 4A
Experimental: (§1) Experiment was carried out in medium containing 1% serum. Anti-ErbB2 antibodies or medium alone were added and the cells were incubated for 2 hours at 37° C. Subsequently rHRGβ1 (1 nM) or medium alone were added and the cells were incubated for 4 days. Monolayers were washed and stained/fixed with 0.5% crystal violet. To determine cell proliferation the absorbance was measured at 540 nm.
(§2) ErbB2 levels in MDA-MB-175 cells are 4–6 times higher than the level found in normal breast epithelial cells and the ErbB2-ErbB4 receptor is constitutively tyrosine phosphorylated in MDA-MB-175 cells. […] Inhibition of cell proliferation by 4D5 is dependent on the ErbB2 expression level (Lewis et al. Cancer Immunol. Immunother. 37:255–263 (1993)). […] However this effect […] by exogenous HRG.

SK-BR-3 cells = test: SK-BR-3 cell proliferation, crystal violet, 4 days, with or without rHRGβ1; format: cell-based, human; settings: 1% serum, FIG. 4B
Experimental: as §1, §2

[1] = tested on: EGF, TGF-α or HRG mediated activation of MAPK in MCF7 cells; test: EGF, TGF-α or HRG activation of MAPK in MCF7 cells, Western blot; format: cell-based, human; settings: 200 nM antibody; 1 nM EGF, 1 nM TGF-α or 0.2 nM HRG; FIG. 10
Experimental: Many growth factor receptors signal through the mitogen-activated protein kinase (MAPK) pathway. These dual specificity kinases are one of the key endpoints in signal transduction pathways that ultimately triggers cancer cells to divide.
MCF7 cells (10^5 cells/well) were plated in serum containing media in 12-well cell culture plates. The next day, the cell media was removed and fresh media containing 0.1% serum was added to each well. This procedure was then repeated the following day and prior to assay the media was replaced with serum-free binding buffer (Jones et al. J. Biol. Chem. 273:11667–74 (1998); and Schaefer et al. J. Biol. Chem. 274:859–66 (1999)). […] Cells were then treated with 1 nM EGF, 1 nM TGF-α or 0.2 nM HRG for 15 minutes. The reaction was stopped by aspirating the cell medium and then adding 0.2 mL SDS-PAGE sample buffer containing 1% DTT. MAPK activation was assessed by Western blotting using an anti-active MAPK antibody (Promega) as described previously (Jones et al. J. Biol. Chem. 273:11667–74 (1998)).

[2] = tested on: CWR22 human prostate cancer xenograft; test: Androgen dependent CWR22 prostate cancer xenograft; format: in vivo, mice; settings: antibody 20 mg/kg twice weekly
From the text: Animal studies: Four to six week old nude athymic BALB/c male and female mice were obtained from the National Cancer Institute-Frederick Cancer Center and maintained in pressurized ventilated caging at the Sloan-Kettering Institute. Male animals were inoculated s.c. with 1×10^6 LNCaP cells or minced tumor tissue from the androgen dependent CWR22, and females received the androgen independent sublines CWR22R, or CWR22SA1, CWRSA4, CWRSA6 which were obtained by selecting tumors for regrowth and increased serum PSA after androgen withdrawal. […] Control mice were given vehicle alone. Tumors were measured every 3–4 days with vernier calipers, and tumor volumes were calculated by the formula: p/6 × larger diameter × (smaller diameter)^2. Animals with palpably established tumors of at least 65 mm^3 in volume were designated to treatment groups.
Pairwise differences between the tumor volumes of the treatment groups were compared over time using a permutation test. […] The statistic used to test the hypothesis was the sum of the squared differences between mean tumor volume summed over all time points.
(§3) The effect of an antibody, which blocks ligand activation of an ErbB receptor, on human prostate cancer was assessed.
(§4) Both antibodies were dosed at 20 mg/kg twice per week.

[3] = tested on: CWR22R human prostate cancer xenograft; test: Androgen independent CWR22R prostate cancer xenograft; format: in vivo, mice; settings: for effect on tumor growth / clinical activity: CWR22R androgen independent
Experimental: (§5) Male animals were inoculated s.c. with 1×10^6 LNCaP cells or minced tumor tissue from the androgen dependent CWR22, and females received the androgen independent sublines CWR22R, or CWR22SA1, CWRSA4, CWRSA6 which were obtained by selecting tumors for regrowth and increased serum PSA after androgen withdrawal. […] Control mice were given vehicle alone. Tumors were measured every 3–4 days with vernier calipers, and tumor volumes were calculated by the formula: p/6 × larger diameter × (smaller diameter)^2. Animals with palpably established tumors of at least 65 mm^3 in volume were designated to treatment groups.
Pairwise differences between the tumor volumes of the treatment groups were compared over time using a permutation test.
as §3
All injections were given IP (N=5).
as §4

[4] = tested on: CWRSA6 human prostate cancer xenograft; test: Androgen independent CWRSA6 prostate cancer xenograft; format: in vivo, mice
Experimental: as §5
Statistical Analysis. Pairwise differences between the tumor volumes of the treatment groups were compared over time using a permutation test. […] The statistic used to test the hypothesis was the sum of the squared differences between mean tumor volume summed over all time points.

[5] = tested on: MSKPC6 androgen independent prostate xenograft; test: Androgen independent MSKPC6 prostate xenograft, dose response; format: in vivo; settings: IP loading 6, 20 or 60 mg/kg then 3, 10 or 30 mg/kg twice weekly, FIG. 25
Experimental: Dose response studies were carried out using rhuMAb 4D5 in the CWR22R and MSKPC6 (Agus et al. Cancer Research 59:4761–4764 (1999)) androgen independent prostate xenografts. Animals were dosed IP with: control; 6 mg/kg loading dose then 3 mg/kg twice weekly; 20 mg/kg loading dose then 10 mg/kg twice weekly; or 60 mg/kg loading dose then 30 mg/kg twice weekly.

[6] = tested on: LNCaP human prostate cancer xenograft; test: Androgen dependent LNCaP prostate cancer xenograft; format: in vivo, mice; settings: end of the treatment period, n=6
From the text: Animal studies: Four to six week old nude athymic BALB/c male and female mice were obtained from the National Cancer Institute-Frederick Cancer Center and maintained in pressurized ventilated caging at the Sloan-Kettering Institute. Male animals were inoculated s.c. with 1×10^6 LNCaP cells or minced tumor tissue from the androgen dependent CWR22, and females received the androgen independent sublines CWR22R, or CWR22SA1, CWRSA4, CWRSA6 which were obtained by selecting tumors for regrowth and increased serum PSA after androgen withdrawal. All lines were injected together with reconstituted basement membrane (Matrigel; Collaborative Research, Bedford, Mass.) as described previously (Nagabhushan et al. Cancer Res. 56:3042–3046 (1996); Wainstein et al. Cancer Res. 54:6049–6052 (1994); and Sato et al. Cancer Res. 57:1584–1589 (1997)). To maintain serum testosterone levels, male mice were implanted with 12.5-mg sustained release testosterone pellets (Innovative Research of American, Sarasota, Fla.) s.c. before receiving the tumor cell inoculation. […] Control mice were given vehicle alone. Tumors were measured every 3–4 days with vernier calipers, and tumor volumes were calculated by the formula: p/6 × larger diameter × (smaller diameter)^2. Animals with palpably established tumors of at least 65 mm^3 in volume were designated to treatment groups. […]

| Molecule | growth inhibitory effect on MDA-MB-175 cells (MDA-MB-175 cells) | growth inhibitory effect on SK-BR-3 cells (SK-BR-3 cells) | block of EGF, TGF-α and HRG mediated activation of MAPK [1] | effect on tumor growth / clinical activity [2] | effect on tumor growth / clinical activity [3] | effect on tumor growth / clinical activity ([4]; CWRSA6 androgen independent) | effect on tumor growth [5] | mean tumor volume [6] | mean tumor volume ([3]; CWR22R, end of the treatment period, n=5) | mean tumor volume ([4]; CWRSA6, end of the treatment period, n=5) |
| --- | --- | --- | --- | --- | --- | --- | --- | --- | --- | --- |
| 2C4: murine monoclonal antibody binding the extracellular domain of ErbB2, blocks ligand activation; ATCC HB12697 [Mutant 2C4] | strong growth inhibitory effect | no inhibitory effect | significantly blocks | has clinical activity | has clinical activity; also recorded: suppresses the growth of androgen-independent tumor xenografts in a dose dependent manner | has clinical activity | suppresses the growth of androgen-independent tumor xenografts in a dose dependent manner | – | – | – |
| CC(=O)O[C@H]1C(=O)[C@@]2(C)[C@H]([C@H](OC(=O)c3ccccc3)[C@]3(O)C[C@H](OC(=O)[C@H](O)[C@@H](NC(=O)c4ccccc4)c4ccccc4)C(C)=C1C3(C)C)[C@]1(OC(C)=O)CO[C@@H]1C[C@@H]2O [paclitaxel, reference compound] | – | – | – | – | – | – | – | 233 mm^3 | 1,273 mm^3 | 1,496 mm^3 |
| B1 | – | – | – | – | inhibits tumor growth | – | – | – | – | – |
